In US20140121258A1, “COMPOUNDS ACT AT MULTIPLE PROSTAGLANDIN RECEPTORS GIVING A GENERAL ANTI-INFLAMMATORY RESPONSE” (ALLERGAN, INC., priority 2010, published 2014):

Tests used:
[1] = Allergic conjunctival itch (itch-scratch episodes); format: in vivo; details: FIGS. 10 and 11, both experiments
Method: The compounds of this invention were tested according to the method described in “Characterization of Receptor Subtypes Involved in Prostanoid-Induced Conjunctival Pruritis and Their Role in Mediating Conjunctival Itching”, Vol. 279, No. 1, (JPET)279, 137-142′ 1996 for their efficacy in alleviating itch.

[2] = system: Dutch-belted pigmented rabbits; experiment: Arachidonate induced uveitis, anterior chamber leukocyte infiltration; format: in vivo, rabbit; details: topical, concentrations of 0.1, 0.3 and 1%; 0.5% sodium arachidonate challenge; FIG. 12
Method: The rational for this protocol is to use arachidonate to directly produce ocular anterior segment uveitis, as opposed to using lipopolysaccharide (LPS) to indirectly release arachidonic acid.
Conscious male or female Dutch-belted pigmented rabbits weighing 2.5-3 kg were used for all in vivo slit lamp studies. Four animals were employed per test group. The right eye of each animal receiving 35 μl of topically administered test and the contralateral left eye of each animal receiving 35 μl of topically administered vehicle (t=0 minutes), followed 30 minutes later by treatment with 35 μl of 0.5% sodium arachidonate onto the surface of both eyes (t=30 minutes). Both eyes were examined by slit lamp 60 minutes following sodium arachdionate challenge (t=90 minutes) at 16× magnification under both white light and blue light illumination at an approximate angle of 45° through 1 mm and 5 mm slit widths.
Anterior chamber leukocyte infiltration was measured using a numerical scoring system to estimate cell number per field defined by a 5 mm slit width: 0=no cells per field (no response); 1=1-10 cells per field (mild); 2=11-20 cells per field (moderate); 3=[…] cells per field (severe); 4=>50 cells per filed (florid). Results are reported as the mean score value±S.E.M.

Row | SMILES | number of itch-scratch episodes [1] | effect in model for uveitis (anterior chamber leukocyte infiltration score) [2]
1 | CCC(CC)COc1ccc(Cl)cc1Cn1nc(CCC(=O)O)cc1C [Example 3a, 3-{1-[5-Chloro-2-(2-ethyl-butoxy)-benzyl]-5-methyl-1H-pyrazol-3-yl}-propionic acid] | significantly lower number of itch-scratch episodes | dose dependent response
2 | CCC(CC)COc1ccc(Br)cc1Cn1nc(CCC(=O)O)cc1C [Example 3, 3-{1-[5-Bromo-2-(2-ethyl-butoxy)-benzyl]-5-methyl-1H-pyrazol-3-yl}-propionic acid] | significantly lower number of itch-scratch episodes | dose dependent response
